Where a SMILES comes first, the peptide text is derived from it. Bridges are numbered along the chain shown (N, C = ends).
Assays:
[1] = tested on: Bacillus subtilis ATCC6633; assay: Bactericidal assay (LD99.9), B. subtilis; type: cell-based; conditions: 10 mM phosphate buffer pH 7.0 with 1% TSB, 2 h, 37°C
Experimental: (§1) The peptides were tested for microbicidal activities against Bacillus subtilis ATCC6633, Escherichia coli ML35, and Staphylococcus aureus 42D as previously described. Suspensions of logarithmically growing test bacteria were incubated on a microtiter plate at a concentration of 10^5 colony-forming units/mL with various peptide dilutions. The medium was 100 µL of 10 mM phosphate buffer pH 7.0 supplemented with 1% (v/v) of tryptic soy broth (TSB). For later assays, human male serum was also added to a final concentration of 25%. 10 µL aliquots were collected at time 0 h and after 2 h of incubation on a rotary shaker (300 rpm) at 37°C. These were plated on blood agar plates and incubated overnight at 37°C. The Lethal Dose concentration (LD99.9) was determined, corresponding to the concentration killing >99.9% of the inoculum at 2 h. These experiments were performed in duplicate.
(§2) For the testing of the peptides' activities in different conditions, e.g. with serum, we use the same cut-off for activity as defined for Minimum Bactericidal Concentration (MBC), i.e. a 1000-fold reduction of the inoculum. However, we designate this peptide concentration with the more general term LD99.9 which can be applied to the specified conditions of the experiments performed here.

in vitro = conditions: 25% human male serum; for remaining at 6.5 h, 5 µM / remaining at 24 h, 5 µM / half-life at 5 µM: male, human; for intact peptide after 2 h: 37°C
Experimental: To investigate the effects of the modifications on proteolytic susceptibility, the disappearance of the intact peptides incubated in diluted human serum at 37°C was followed by RP-HPLC. […] Incubations were normally done for 9 h and, in some cases, longer.
Peptide stabilities were assayed in diluted serum as previously described. 25% human male serum was centrifuged at 13,000 rpm for 10 min to remove lipids and the supernatant was collected and incubated at 37°C for at least 15 min. The assay was initiated upon the addition of the test peptide to the serum for a final peptide concentration of 5 µM. 200 µL aliquots of the incubations were taken for the following time points: 0, 30, 75, 120, 240, 390 and 540 min. The aliquots were mixed with 40 µL of 15% trichloroacetic acid (TCA) and incubated at 4°C for at least 15 min to precipitate serum proteins. In the case of Com5 and Com6, 5 µL of 1 M NaOH was supplemented to the TCA to prevent peptide precipitation. The supernatant was collected for each sample after centrifugation at 13,000 rpm for 10 min and stored at −20°C. These assays were performed in triplicate.
Reverse phase high performance liquid chromatography (RP-HPLC) analysis was performed with an AKTA Purifier from Amersham Biosciences (Westborough, MA) using an uRPC C2/C18 ST 4.6/100 column from Pharmacia Biotech (SanJose, CA) of the following dimensions: bed length 100 mm, i.d. 4.6 mm, 120Å. Individually thawed samples were injected through a 100 µL loop, after which a linear gradient was run from 100% solution A (0.05% trifluoroacetic acid (TFA) in filtered water) to 100% solution B (0.045% TFA in 90% acetonitrile) with a flow rate at 0.5 mL/min. The relative concentrations of the remaining soluble peptides were analyzed by the integration of the absorbance at 215 nm as a function of retention time using the Analysis module of the Unicorn software package.

[2] = tested on: Staphylococcus aureus 42D; assay: Bactericidal assay (LD99.9), S. aureus; type: cell-based; conditions: 10 mM phosphate buffer pH 7.0 with 1% TSB, 2 h, 37°C
Experimental: as §1, §2

[3] = tested on: Staphylococcus aureus 42D; assay: Bactericidal assay (LD99.9), S. aureus in 25% human serum; type: cell-based; conditions: unit not given (Table 3 uses µM)
Experimental: In order to be able to make a direct comparison with our serum stability measurements, a few peptides were selected to be tested for antimicrobial activity in 25% human serum (Table 4). […] All LD99.9 values are higher compared to the initial assays in 10 mM sodium phosphate buffer. Contributing factors to this general loss in activity could be the increased ionic concentration, interactions with serum components such as albumin or other proteins, and peptide degradation. Both hexamers with unprotected termini, Lfc1 and Com1, are no longer active while the cyclized short peptides remained fairly antimicrobial. In human serum, Lfc5 and Lfc6 are equally anti-staphylococcal. This reflects a greater loss of activity for Lfc6, but also coincides with the lower serum stability that this peptide has compared to Lfc5 (Fig. 2C). The activities of the cyclized Com peptides were all lowered equally with a 16-fold increase in LD99.9 values compared to activities in serum-excluded media and this agrees with their similar stability profiles (Fig. 2D).
as §1, §2

Escherichia coli ML35 = assay: Bactericidal assay (LD99.9), E. coli; type: cell-based; conditions: 10 mM phosphate buffer pH 7.0 with 1% TSB, 2 h, 37°C
Experimental: as §1, §2

N=C(N)NCCC[C@@H]1NC(=O)[C@H](Cc2c[nH]c3ccccc23)NC(=O)[C@H](Cc2c[nH]c3ccccc23)NC(=O)[C@H](CCCNC(=N)N)NC(=O)[C@H](CCCNC(=N)N)NC(=O)[C@@H](N)CSSC[C@@H](C(N)=O)NC(=O)[C@H](Cc2ccccc2)NC1=O [Com6, CRRWWRFC-NH2] (H-CRRWWRFC-NH2; disulfide 1-8)
99.9% Lethal Dose Concentration (LD99.9) B. subtilis [1]: 0.9 µM | remaining at 6.5 h, 5 µM (in vitro): ~50% | 99.9% Lethal Dose Concentration (LD99.9) S. aureus [2]: 0.9 µM | LD99.9 anti-S. aureus in 25% human serum [3]: 15 | 99.9% Lethal Dose Concentration (LD99.9) E. coli (Escherichia coli ML35): 3.8 µM

N=C(N)NCCC[C@@H]1NC(=O)[C@H](CCCNC(=N)N)NC(=O)[C@H](Cc2c[nH]c3ccccc23)NC(=O)[C@H](CCC(N)=O)NC(=O)[C@H](Cc2c[nH]c3ccccc23)NC(=O)[C@H](CCCNC(=N)N)NC1=O [Lfc5, -RRWQWR-] (cyclo(RRWQWR))
99.9% Lethal Dose Concentration (LD99.9) B. subtilis [1]: 1.9 µM | remaining at 6.5 h, 5 µM (in vitro): > 70% | remaining at 24 h, 5 µM (in vitro): ~50% | 99.9% Lethal Dose Concentration (LD99.9) S. aureus [2]: 7.5 µM | LD99.9 anti-S. aureus in 25% human serum [3]: 60 | 99.9% Lethal Dose Concentration (LD99.9) E. coli (Escherichia coli ML35): 7.5 µM

N=C(N)NCCC[C@H](NC(=O)[C@H](Cc1c[nH]c2ccccc12)NC(=O)[C@H](Cc1c[nH]c2ccccc12)NC(=O)[C@H](CCCNC(=N)N)NC(=O)[C@@H](N)CCCNC(=N)N)C(=O)N[C@@H](Cc1ccccc1)C(=O)O [Com1, RRWWRF] (H-RRWWRF-OH)
99.9% Lethal Dose Concentration (LD99.9) B. subtilis [1]: 1.9 µM | intact peptide after 2 h (in vitro): completely gone | half-life at 5 µM (in vitro): < 0.5 h | 99.9% Lethal Dose Concentration (LD99.9) S. aureus [2]: 7.5 µM | LD99.9 anti-S. aureus in 25% human serum [3]: >120 | 99.9% Lethal Dose Concentration (LD99.9) E. coli (Escherichia coli ML35): 60 µM

CC(=O)N[C@@H](CCCNC(=N)N)C(=O)N[C@@H](CCCNC(=N)N)C(=O)N[C@@H](Cc1c[nH]c2ccccc12)C(=O)N[C@@H](CCC(N)=O)C(=O)N[C@@H](Cc1c[nH]c2ccccc12)C(=O)N[C@@H](CCCNC(=N)N)C(=O)O [Lfc3, CH3CO-RRWQWR] (Ac-RRWQWR-OH)
99.9% Lethal Dose Concentration (LD99.9) B. subtilis [1]: 60 µM | intact peptide after 2 h (in vitro): almost fully degraded | half-life at 5 µM (in vitro): ~1 h | 99.9% Lethal Dose Concentration (LD99.9) S. aureus [2]: >120 µM | 99.9% Lethal Dose Concentration (LD99.9) E. coli (Escherichia coli ML35): 120 µM

CC(=O)N[C@@H](CCCNC(=N)N)C(=O)N[C@@H](CCCNC(=N)N)C(=O)N[C@@H](Cc1c[nH]c2ccccc12)C(=O)N[C@@H](Cc1c[nH]c2ccccc12)C(=O)N[C@@H](CCCNC(=N)N)C(=O)N[C@@H](Cc1ccccc1)C(=O)O [Com3, CH3CO-RRWWRF] (Ac-RRWWRF-OH)
99.9% Lethal Dose Concentration (LD99.9) B. subtilis [1]: 7.5 µM | intact peptide after 2 h (in vitro): almost fully degraded | half-life at 5 µM (in vitro): ~1 h | 99.9% Lethal Dose Concentration (LD99.9) S. aureus [2]: 30 µM | 99.9% Lethal Dose Concentration (LD99.9) E. coli (Escherichia coli ML35): 120 µM

N=C(N)NCCC[C@@H]1NC(=O)[C@H](Cc2c[nH]c3ccccc23)NC(=O)[C@H](CCC(N)=O)NC(=O)[C@H](Cc2c[nH]c3ccccc23)NC(=O)[C@H](CCCNC(=N)N)NC(=O)[C@H](CCCNC(=N)N)NC(=O)[C@@H](N)CSSC[C@@H](C(N)=O)NC1=O [Lfc6, CRRWQWRC-NH2] (H-CRRWQWRC-NH2; disulfide 1-8)
LD99.9 anti-S. aureus in 25% human serum [3]: 60

N=C(N)NCCC[C@@H]1NC(=O)[C@H](CCCNC(=N)N)NC(=O)[C@H](Cc2ccccc2)NC(=O)[C@H](CCCNC(=N)N)NC(=O)[C@H](Cc2c[nH]c3ccccc23)NC(=O)[C@H](Cc2c[nH]c3ccccc23)NC1=O [Com5, -RRWWRF-] (cyclo(RRWWRF))
99.9% Lethal Dose Concentration (LD99.9) B. subtilis [1]: ≤0.45 µM | remaining at 6.5 h, 5 µM (in vitro): > 70% | remaining at 24 h, 5 µM (in vitro): ~50% | 99.9% Lethal Dose Concentration (LD99.9) S. aureus [2]: 7.5 µM | LD99.9 anti-S. aureus in 25% human serum [3]: 30 | 99.9% Lethal Dose Concentration (LD99.9) E. coli (Escherichia coli ML35): 30 µM

CC(=O)N[C@@H](CCCNC(=N)N)C(=O)N[C@@H](CCCNC(=N)N)C(=O)N[C@@H](Cc1c[nH]c2ccccc12)C(=O)N[C@@H](CCC(N)=O)C(=O)N[C@@H](Cc1c[nH]c2ccccc12)C(=O)N[C@@H](CCCNC(=N)N)C(N)=O [Lfc4, CH3CO-RRWQWR-NH2] (Ac-RRWQWR-NH2)
99.9% Lethal Dose Concentration (LD99.9) B. subtilis [1]: 3.8 µM | half-life at 5 µM (in vitro): ~1.5 h | 99.9% Lethal Dose Concentration (LD99.9) S. aureus [2]: 60 µM | 99.9% Lethal Dose Concentration (LD99.9) E. coli (Escherichia coli ML35): 15 µM
